{"source": "patent US20070123546A1", "about": "“2-amino-7,8-dihydro-6H-pyrido[4,3-d]pyrimidin-5-ones” (Chiron Corporation, priority 2005, published 2007)"}
{"target": "His-tagged N-terminal ATP binding domain (amino acid residues 9-236) of HSP90α (Homo sapiens, UniProt P07900)", "assay": "HSP90 inhibitor binding potency: TRF competition binding assay", "conditions": "Table 2; competition with biotinylated radicicol", "method": "(§1) HSP90 Inhibitor Binding Potency: TRF Binding Assay\n(§2) In this example, the binding potency of HSP90 inhibitors as measured by a TRF binding assay is described.\n(§3) TRF competition binding assays were performed to determine the binding potency (IC50 values) of HSP90 inhibitors. Purified His-tagged N-terminal ATP binding domain (amino acid residues 9-236) of HSP90α (HSP90α GeneID: 3320; mRNA Sequence NM_005348) was incubated for two hours at room temperature in binding buffer (50 mM HEPES, 6 mM MgCl2, 20 mM KCl and 0.1% BSA) with biotinylated radicicol and progressively higher concentrations of the competing compounds. A fraction of the mixture was transferred to capture plates (coated with streptavidin) and incubated for one hour at room temperature. After washing with DELFIA wash buffer, europium-labeled anti-his antibody was added and incubated for two hours at room temperature, followed by washing with DELFIA buffer. DELFIA enhancement solution was then added. After gentle shaking for 10 minutes, the plates were read in VICTOR for europium counts.", "units": {"IC50": "µM"}}
{"smiles": "COc1cccc(-c2cc(F)ccc2[C@H]2Cc3nc(N)nc(C)c3C(=O)N2)c1OC", "note": "[Compound 73, (R)-2-Amino-7-(5-fluoro-2,3′-dimethoxy-biphenyl-2-yl)-4-methyl-7,8-dihydro-6H-pyrido[4,3-d]pyrimidin-5-one]", "IC50": "< 10"}
{"smiles": "CCOc1cccc(-c2cc(F)ccc2[C@H]2Cc3nc(N)nc(C)c3C(=O)N2)n1", "note": "[Compound 74]", "IC50": "< 10"}
{"smiles": "CCOc1nc(-c2cc(F)ccc2[C@H]2Cc3nc(N)nc(C)c3C(=O)N2)cnc1N", "note": "[Compound 75, (R)-2-Amino-7-[2-(5-amino-6-ethoxy-pyrazin-2-yl)-4-fluoro-phenyl]-4-methyl-7,8-dihydro-6H-pyrido[4,3-d]pyrimidin-5-one]", "IC50": "< 10"}
{"smiles": "CCc1nc(N)nc2c1C(=O)N[C@@H](c1ccccc1-c1cccc(OC)n1)C2", "note": "[Compound 77, (R)-2-Amino-4-ethyl-7-[2-(6-methoxy-pyndin-2-yl)-phenyl]-7,8-dihydro-6H-pyrido[4,3-d]pyrimidin-5-one]", "IC50": "< 10"}
{"smiles": "CCc1nc(N)nc2c1C(=O)N[C@@H](c1ccccc1-c1cncc(OC)n1)C2", "note": "[Compound 78, (R)-2-Amino-4-ethyl-7-[2-(6-methoxy-pyrazin-2-yl)-phenyl]-7,8-dihydro-6H-pyrido[4,3-d]pyrimidin-5-one]", "IC50": "< 10"}
{"smiles": "CCc1nc(N)nc2c1C(=O)N[C@@H](c1ccccc1-c1cnc(N)c(OC)n1)C2", "note": "[Compound 79, (R)-2-Amino-7-[2-(5-amino-6-methoxy-pyrazin-2-yl)-phenyl]-4-ethyl-7,8-dihydro-6H-pyrido[4,3-d]pyrimidin-5-one]", "IC50": "< 10"}
{"smiles": "CCc1nc(N)nc2c1C(=O)N[C@@H](c1ccccc1-c1csc(OC)n1)C2", "note": "[Compound 80, (R)-2-Amino-4-ethyl-7-[2-(2-methoxy-thiazol-4-yl)-phenyl]-7,8-dihydro-6H-pyrido[4,3-d]pyrimidin-5-one]", "IC50": "> 10"}
{"smiles": "CCc1nc(N)nc2c1C(=O)N[C@@H](c1ccc(F)cc1-c1cccc(OC)n1)C2", "note": "[Compound 81, (R)-2-Amino-4-ethyl-7-[4-fluoro-2-(6-methoxy-pyridin-2-yl)-phenyl]-7,8-dihydro-6H-pyrido[4,3-d]pyrimidin-5-one]", "IC50": "< 10"}
{"smiles": "CCc1nc(N)nc2c1C(=O)N[C@@H](c1ccc(F)cc1-c1cncc(OC)n1)C2", "note": "[Compound 82, (R)-2-Amino-4-ethyl-7-[4-fluoro-2-(6-methoxy-pyrazin-2-yl)-phenyl]-7,8-dihydro-6H-pyrido[4,3-d]pyrimidin-5-one]", "IC50": "< 10"}
{"smiles": "CCOc1nc(-c2cc(F)ccc2[C@H]2Cc3nc(N)ncc3C(=O)N2)cnc1N", "note": "[Compound 83, (R)-2-Amino-7-[2-(5-amino-6-ethoxy-pyrazin-2-yl)-4-fluoro-phenyl]-7,8-dihydro-6H-pyrido[4,3-d]pyrimidin-5-one]", "IC50": "< 10"}
{"smiles": "CCc1nc(N)nc2c1C(=O)N[C@@H](c1ccc(F)cc1-c1csc(OC)n1)C2", "note": "[Compound 84, (R)-2-Amino-4-ethyl-7-[4-fluoro-2-(2-methoxy-thiazol-4-yl)-pbenyl]-7,8-dihydro-6H-pyrido[4,3-d]pyrimidin-5-one]", "IC50": "< 10"}
{"smiles": "CCOc1cncc(-c2cc(F)ccc2[C@H]2Cc3nc(N)nc(C)c3C(=O)N2)n1", "note": "[Compound 85, (R)-2-Amino-7-[2-(6-ethoxy-pyrazin-2-yl)-4-fluoro-phenyl]-4-methyl-7,8-dihydro-6H-pyrido[4,3-d]pyrimidin-5-one]", "IC50": "< 10"}
{"smiles": "CCOc1cncc(-c2cc(F)ccc2[C@H]2Cc3nc(N)nc(CC)c3C(=O)N2)n1", "note": "[Compound 86, (R)-2-Amino-7-[2-(6-ethoxy-pyrazin-2-yl)-4-fluoro-phenyl]-4-ethyl-7,8-dihydro-6H-pyrido[4,3-d]pyrimidin-5-one]", "IC50": "< 10"}
{"smiles": "CCOc1cncc(-c2cc(F)ccc2[C@H]2Cc3nc(N)ncc3C(=O)N2)n1", "note": "[Compound 87, (R)-2-Amino-7-[2-(6-ethoxy-pyrazin-2-yl)-4-fluoro-phenyl]-7,8-dihydro-6H-pyrido[4,3-d]pyrimidin-5-one]", "IC50": "< 10"}
{"smiles": "COc1cncc(-c2scnc2[C@H]2Cc3nc(N)nc(C)c3C(=O)N2)n1", "note": "[Compound 88, (R)-2-Amino-7-[5-(6-methoxy-pyrazin-2-yl)-thiazol-4-yl]-4-methyl-7,8-dihydro-6H-pyrido[4,3-d]pyrimidin-5-one]", "IC50": "< 10"}
{"target": "His-tagged N-terminal ATP binding domain (amino acid residues 9-236) of HSP90α (Homo sapiens, UniProt P07900)", "assay": "HSP90 inhibitor binding potency: TRF competition binding assay", "conditions": "Table 3; competition with biotinylated radicicol", "method": "as §1, §2, §3", "units": {"IC50": "µM"}}
{"smiles": "Cc1nc(N)nc2c1C(=O)NC(c1ccc(F)cc1-c1ccccc1C(F)(F)F)C2", "note": "(stereo not shown) [Compound 89, 2-Amino-7-(5-fluoro-2′-trifluoromethyl-biphenyl-2-yl)-4-methyl-7,8-dihydro-6H-pyrido[4,3-d]pyrimidin-5-one]", "IC50": "< 10"}
{"smiles": "Cc1nc(N)nc2c1C(=O)NC(c1ccc(F)cc1-c1ccncc1)C2", "note": "(stereo not shown) [Compound 90, 2-Amino-7-(4-fluoro-2-pyridin-4-yl-phenyl)-4-methyl-7,8-dihydro-6H-pyrido[4,3-d]pyrimidin-5-one]", "IC50": "> 10"}
{"smiles": "COc1ccc(-c2cc(F)ccc2C2Cc3nc(N)nc(C)c3C(=O)N2)cc1F", "note": "(stereo not shown) [Compound 91, 2-Amino-7-(5,3′-difluoro-4′-methoxy-biphenyl-2-yl)-4-methyl-7,8-dihydro-6H-pyrido[4,3-d]pyrimidin-5-one]", "IC50": "> 10"}
{"smiles": "Cc1nc(N)nc2c1C(=O)NC(c1ccccc1)C2", "note": "(stereo not shown) [Compound 92, 2-Amino-4-methyl-7-phenyl-7,8-dihydro-6H-pyrido[4,3-d]pyrimidin-5-one]", "IC50": "> 10"}
{"smiles": "COc1cncc(-c2cc(F)ccc2C2Cc3nc(N)nc(C)c3C(=O)N2CCN)n1", "note": "(stereo not shown) [Compound 93, 2-Amino-6-(2-amino-ethyl)-7-[4-fluoro-2-(6-methoxy-pyrazin-2-yl)-phenyl]-4-methyl-7,8-dihydro-6H-pyrido[4,3-d]pyrimidin-5-one]", "IC50": "< 10"}
{"smiles": "COc1nc(-c2cc(F)ccc2[C@H]2Cc3nc(N)nc(C)c3C(=O)N2)cs1", "note": "[Compound 95, (R)-2-Amino-7-[4-fluoro-2-(2-methoxy-thiazol-4-yl)-phenyl]-4-methyl-7,8-dihydro-6H-pyrido[4,3-d]pyrimidin-5-one]", "IC50": "< 10"}
{"smiles": "COc1cccc(-c2cc(F)ccc2[C@H]2Cc3nc(N)ncc3C(=O)N2)n1", "note": "[Compound 96, (R)-2-Amino-7-[4-fluoro-2-(6-methoxy-pyridin-2-yl)-phenyl]-7,8-dihydro-6H-pyrido[4,3-d]pyrimidin-5-one]", "IC50": "< 10"}
{"smiles": "COc1nc(-c2cc(F)ccc2[C@H]2Cc3nc(N)ncc3C(=O)N2)cnc1N", "note": "[Compound 97, (R)-2-Amino-7-[2-(5-amino-6-methoxy-pyrazin-2-yl)-4-fluoro-ohenyl]-7,8-dihydro-6H-pyrido[4,3-d]pyrimidin-5-one]", "IC50": "< 10"}
{"smiles": "Nc1ncc2c(n1)C[C@H](c1ccc(F)cc1)NC2=O", "note": "[Compound 98, (R)-2-Amino-7-(4-fluoro-phenyl)-7,8-dihydro-6H-pyrido[4,3-d]pyrimidin-5-one]", "IC50": "< 10"}
{"smiles": "COc1nc(-c2cc(F)ccc2C2Cc3nc(N)nc(C)c3C(=O)N2)cnc1N", "note": "(stereo not shown) [Compound 99, 2-Amino-7-[2-(5-amino-6-methoxy-pyrazin-2-yl)-4-fluoro-phenyl]-4-methyl-7,8-dihydro-6H-pyrido[4,3-d]pyrimidin-5-one]", "IC50": "< 10"}
{"smiles": "COc1nc(-c2cc(F)ccc2[C@@H]2Cc3nc(N)nc(C)c3C(=O)N2)cnc1N", "note": "[Compound 100, (S)-2-Amino-7-[2-(5-amino-6-methoxy-pyrazin-2-yl)-4-fluoro-phenyl]-4-methyl-7,8-dihydro-6H-pyrido[4,3-d]pyrimidin-5-one]", "IC50": "> 10"}
{"smiles": "COc1nc(-c2cc(F)ccc2[C@H]2Cc3nc(N)nc(C)c3C(=O)N2)cnc1N", "note": "[Compound 101, (R)-2-Amino-7-[2-(5-amino-6-methoxy-pyrazin-2-yl)-4-fluoro-phenyl]-4-methyl-7,8-dihydro-6H-pyrido[4,3-d]pyrimidin-5-one]", "IC50": "< 10"}
{"smiles": "Cc1nc(N)nc2c1C(=O)N[C@@H](c1ccc(F)cc1)C2", "note": "[Compound 102, (R)-2-Amino-7-(4-fluoro-phenyl)-4-methyl-7,8-dihydro-6H-pyrido[4,3-d]pyrimidin-5-one]", "IC50": "< 10"}
{"smiles": "Cc1nc(N)nc2c1C(=O)N[C@@H](c1ccccc1)C2", "note": "[Compound 103, (R)-2-Amino-4-methyl-7-phenyl-7,8-dihydro-6H-pyrido[4,3-d]pyrimidin-5-one]", "IC50": "< 10"}
{"smiles": "COc1nc(-c2ccccc2[C@H]2Cc3nc(N)nc(C)c3C(=O)N2)cnc1N", "note": "[Compound 104, (R)-2-Amino-7-[2-(5-amino-6-methoxy-pyrazin-2-yl)-phenyl]-4-methyl-7,8-dihydro-6H-pyrido[4,3-d]pyrimidin-5-one]", "IC50": "< 10"}
{"smiles": "C=CCN1C(=O)c2c(C)nc(N)nc2C[C@@H]1c1ccc(F)cc1-c1cnc(N)c(OC)n1", "note": "[Compound 105, (R)-6-Allyl-2-amino-7-[2-(5-amino-6-methoxy-pyrazin-2-yl)-4-fluoro-phenyl]-4-methyl-7,8-dihydro-6H-pyndo[4,3-d]pyrimidin-5-one]", "IC50": "< 10"}
{"smiles": "CCN1C(=O)c2c(C)nc(N)nc2C[C@@H]1c1ccc(F)cc1-c1cccc(OC)n1", "note": "[Compound 106, (R)-2-Amino-6-ethyl-7-[4-fluoro-2-(6-methoxy-pyridin-2-yl)-phenyl]-4-methyl-7,8-dihydro-6H-pyrido[4,3-d]pyrimidin-5-one]", "IC50": "< 10"}
{"smiles": "CCN1C(=O)c2c(C)nc(N)nc2C[C@@H]1c1ccc(F)cc1-c1cccnc1OC", "note": "[Compound 107, (R)-2-Amino-6-ethyl-7-[4-fluoro-2-(2-methoxy-pyridin-3-yl)-phenyl]-4-methyl-7,8-dihydro-6H-pyrido[4,3-d]pyrimidin-5-one]", "IC50": "< 10"}
{"smiles": "CCN1C(=O)c2c(C)nc(N)nc2C[C@@H]1c1ccc(F)cc1-c1cncc(OC)n1", "note": "[Compound 108, (R)-2-Amino-6-ethyl-7-[4-fluoro-2-(6-methoxy-pyrazin-2-yl)-phenyl]-4-methyl-7,8-dihydrp-6H-pyrido[4,3-d]pyrimidin-5-one]", "IC50": "< 10"}
